For 33 compounds, EC50 and Emax results are on record in patent US10457703B2, “Bile acid derivatives as FXR/TGR5 agonists and methods of use thereof” (ENANTA PHARMACEUTICALS, INC., priority 2015, dated 2019).

The target in this experiment is human FXR (NR1H4) (Homo sapiens (Human), UniProt Q96RI1). In words: Human FXR (NR1H4) Assay (Gal4 promoter driven luciferase reporter, Indigo Bioscience kit).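 For Efficacy (%): 100% equals the efficacy of CDCA; efficacy normalized to CDCA set as 100%.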 The experiment is classed as cell-based. As to conditions: for EC50: Human FXR (NR1H4) Assay, potency ranges; for Emax: read-out: Efficacy (%). Summed up: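 CHO reporter cells expressing human FXR with an FXR-responsive luciferase reporter, treated with compound doses at 0.2% DMSO. Incubation lasted 22 h at 37 °C before luciferase detection reagent was added. Luminescence was then read.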
Chain of human FXR (NR1H4) (Q96RI1 whole entry, the tested form may be a part): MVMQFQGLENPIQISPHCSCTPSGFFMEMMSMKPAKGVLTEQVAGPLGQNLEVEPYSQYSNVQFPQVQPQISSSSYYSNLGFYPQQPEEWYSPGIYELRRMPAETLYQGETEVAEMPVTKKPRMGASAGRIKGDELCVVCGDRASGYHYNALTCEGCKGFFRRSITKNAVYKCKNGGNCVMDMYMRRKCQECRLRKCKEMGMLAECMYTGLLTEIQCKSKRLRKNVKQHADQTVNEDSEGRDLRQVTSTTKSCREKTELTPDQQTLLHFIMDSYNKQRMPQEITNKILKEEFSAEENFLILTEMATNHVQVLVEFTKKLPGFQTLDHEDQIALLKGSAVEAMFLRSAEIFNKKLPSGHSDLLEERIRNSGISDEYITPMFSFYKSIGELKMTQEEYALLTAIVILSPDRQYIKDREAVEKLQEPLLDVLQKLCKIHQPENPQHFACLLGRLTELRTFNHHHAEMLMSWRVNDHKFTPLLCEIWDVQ

For the compound `CC[C@H]1[C@@H](O)[C@@H]2[C@H](CC[C@]3(C)[C@@H]([C@H](C)CCOC(=O)NS(=O)(=O)c4ccc(F)cc4)CC[C@@H]23)[C@@]2(C)CC[C@@H](O)C[C@@H]12` [Example 46], the EC50 is less than 0.1 µM and the Emax turned out to be 267%.
Taken in the same sequence, the figures for `CC[C@H]1[C@@H](O)[C@@H]2[C@H](CC[C@]3(C)[C@@H]([C@H](C)CCOC(=O)N[C@H]4CC[C@H](O)CC4)CC[C@@H]23)[C@@]2(C)CC[C@@H](O)C[C@@H]12` [Example 185] were 0.1 to 1 µM and 392%.
In the same order, the values of `CC[C@H]1[C@@H](O)[C@@H]2[C@H](CC[C@]3(C)[C@@H]([C@H](C)CCOC(=O)NCCC4CC4)CC[C@@H]23)[C@@]2(C)CC[C@@H](O)C[C@@H]12` [Example 177] are 0.1 to 1 µM and 460%.
In the same order, the values of `CC[C@H]1[C@@H](O)[C@@H]2[C@H](CC[C@]3(C)[C@@H]([C@H](C)CCOC(=O)N[C@@H]4CCC[C@@H]4O)CC[C@@H]23)[C@@]2(C)CC[C@@H](O)C[C@@H]12` [Example 206] are less than 0.1 µM and 174%.
In the case of `CC[C@H]1[C@@H](O)[C@@H]2[C@H](CC[C@]3(C)[C@@H]([C@H](C)COC(=O)NS(=O)(=O)c4ccc(N5CCC5)cc4)CC[C@@H]23)[C@@]2(C)CC[C@@H](O)C[C@@H]12` [Example 17], the EC50 was less than 0.1 µM and the Emax was 211%.
In the same order, the values of `CC[C@H]1[C@@H](O)[C@@H]2[C@H](CC[C@]3(C)[C@@H]([C@H](C)COC(=O)NS(=O)(=O)c4ccc(C)cc4)CC[C@@H]23)[C@@]2(C)CC[C@@H](O)C[C@@H]12` [Example 5] are 0.1 to 1 µM and 85%.
Taken in the same sequence, the figures for `CC[C@H]1[C@@H](O)[C@@H]2[C@H](CC[C@]3(C)[C@@H]([C@H](C)CCOC(=O)NS(=O)(=O)c4ccc5c(c4)CCC5)CC[C@@H]23)[C@@]2(C)CC[C@@H](O)C[C@@H]12` [Example 67] were less than 0.1 µM and 290%.
Taken in the same sequence, the figures for `CC[C@H]1[C@@H](O)[C@@H]2[C@H](CC[C@]3(C)[C@@H]([C@H](C)CCOC(=O)NCc4ccc(C(=O)O)cc4)CC[C@@H]23)[C@@]2(C)CC[C@@H](O)C[C@@H]12` [Example 159] were 0.1 to 1 µM and 221%.
For `CC[C@H]1[C@@H](O)[C@@H]2[C@H](CC[C@]3(C)[C@@H]([C@H](C)CCOC(=O)NCc4ccccc4)CC[C@@H]23)[C@@]2(C)CC[C@@H](O)C[C@@H]12` [Example 125], the EC50 is 0.1 to 1 µM and the Emax came out at 305%.
In the same order, the values of `CC[C@H]1[C@@H](O)[C@@H]2[C@H](CC[C@]3(C)[C@@H]([C@H](C)CCOC(=O)NS(=O)(=O)c4ccc(C(C)(C)C)cc4)CC[C@@H]23)[C@@]2(C)CC[C@@H](O)C[C@@H]12` [Example 45] are less than 0.1 µM and 235%.
Taken in the same sequence, the figures for `CC[C@H]1[C@@H](O)[C@@H]2[C@H](CC[C@]3(C)[C@@H]([C@H](C)CCOC(=O)N4CCC4)CC[C@@H]23)[C@@]2(C)CC[C@@H](O)C[C@@H]12` [Example 162] were 0.1 to 1 µM and 277%.
In the same order, the values of `CC[C@H]1[C@@H](O)[C@@H]2[C@H](CC[C@]3(C)[C@@H]([C@H](C)CCOC(=O)NS(=O)(=O)c4ccc(OC(F)(F)F)cc4)CC[C@@H]23)[C@@]2(C)CC[C@@H](O)C[C@@H]12` [Example 53] are less than 0.1 µM and 411%.
With `CC[C@H]1[C@@H](O)[C@@H]2[C@H](CC[C@]3(C)[C@@H]([C@H](C)CCOC(=O)N[C@H]4CCCC[C@@H]4O)CC[C@@H]23)[C@@]2(C)CC[C@@H](O)C[C@@H]12` [Example 168], the EC50 lay within 0.1 to 1 µM and the Emax came to 302%.
In the same order, the values of `CC[C@H]1[C@@H](O)[C@@H]2[C@H](CC[C@]3(C)[C@@H]([C@H](C)CCOC(=O)NCCSC)CC[C@@H]23)[C@@]2(C)CC[C@@H](O)C[C@@H]12` [Example 140] are 0.1 to 1 µM and 246%.
In the case of `CC[C@H]1[C@@H](O)[C@@H]2[C@H](CC[C@]3(C)[C@@H]([C@H](C)CCOC(=O)NCCc4cccs4)CC[C@@H]23)[C@@]2(C)CC[C@@H](O)C[C@@H]12` [Example 143], the EC50 was in the range of 0.1 to 1 µM and the Emax was 202%.
Taken in the same sequence, the figures for `CC[C@H]1[C@@H](O)[C@@H]2[C@H](CC[C@]3(C)[C@@H]([C@H](C)COC(=O)NS(=O)(=O)c4ccc(-n5cncn5)nc4)CC[C@@H]23)[C@@]2(C)CC[C@@H](O)C[C@@H]12` [Example 44-l] were 0.1 to 1 µM and 165%.
Taken in the same sequence, the figures for `CC[C@H]1[C@@H](O)[C@@H]2[C@H](CC[C@]3(C)[C@@H]([C@H](C)CCOC(=O)Nc4cncc(Cl)c4)CC[C@@H]23)[C@@]2(C)CC[C@@H](O)C[C@@H]12` [Example 194] were 1 to 10 µM and 170%.
With `CC[C@H]1[C@@H](O)[C@@H]2[C@H](CC[C@]3(C)[C@@H]([C@H](C)CCOC(=O)N[C@H](C(=O)O)C(C)C)CC[C@@H]23)[C@@]2(C)CC[C@@H](O)C[C@@H]12` [Example 155], the EC50 is 0.1 to 1 µM and the Emax came to 278%.
Taken in the same sequence, the figures for `CC[C@H]1[C@@H](O)[C@@H]2[C@H](CC[C@]3(C)[C@@H]([C@H](C)CCOC(=O)NS(=O)(=O)c4ccc(C)cc4)CC[C@@H]23)[C@@]2(C)CC[C@@H](O)C[C@@H]12` [Example 104-b] were less than 0.1 µM and 363%.
Taken in the same sequence, the figures for `CC[C@H]1[C@@H](O)[C@@H]2[C@H](CC[C@]3(C)[C@@H]([C@H](C)CCOC(=O)N[C@H]4CCC[C@H]4O)CC[C@@H]23)[C@@]2(C)CC[C@@H](O)C[C@@H]12` [Example 216] were 0.1 to 1 µM and 478%.
In the same order, the values of `CC[C@H]1[C@@H](O)[C@@H]2[C@H](CC[C@]3(C)[C@@H]([C@H](C)COC(=O)NS(=O)(=O)c4ccc(-c5ccc(C(C)(C)C)cc5)s4)CC[C@@H]23)[C@@]2(C)CC[C@@H](O)C[C@@H]12` [Example 25] are 0.1 to 1 µM and 182%.
As for `CC[C@H]1[C@@H](O)[C@@H]2[C@H](CC[C@]3(C)[C@@H]([C@H](C)CCOC(=O)NS(=O)(=O)c4ccc(C(F)(F)F)cc4)CC[C@@H]23)[C@@]2(C)CC[C@@H](O)C[C@@H]12` [Example 79], the EC50 was less than 0.1 µM and the Emax stood at 376%.
In the same order, the values of `CC[C@H]1[C@@H](O)[C@@H]2[C@H](CC[C@]3(C)[C@@H]([C@H](C)CCOC(=O)NS(=O)(=O)CCC(=O)OC)CC[C@@H]23)[C@@]2(C)CC[C@@H](O)C[C@@H]12` [Example 92] are 1 to 10 µM and 218%.
In the same order, the values of `CC[C@H]1[C@@H](O)[C@@H]2[C@H](CC[C@]3(C)[C@@H]([C@H](C)CCCOC(=O)NS(=O)(=O)c4cccc(C(C)(C)C)c4)CC[C@@H]23)[C@@]2(C)CC[C@@H](O)C[C@@H]12` [Example 112] are 0.1 to 1 µM and 123%.
Turning to `CC[C@H]1[C@@H](O)[C@@H]2[C@H](CC[C@]3(C)[C@@H]([C@H](C)CCOC(=O)NS(=O)(=O)N4CC(C)(C)C4)CC[C@@H]23)[C@@]2(C)CC[C@@H](O)C[C@@H]12` [Example 104-g], the EC50 was less than 0.1 µM and the Emax amounted to 289%.
In the same order, the values of `CC[C@H]1[C@@H](O)[C@@H]2[C@H](CC[C@]3(C)[C@@H]([C@H](C)COC(=O)NS(=O)(=O)c4ccc(C(C)(C)C)cc4)CC[C@@H]23)[C@@]2(C)CC[C@@H](O)C[C@@H]12` [Example 4] are less than 0.1 µM and 319%.
In the same order, the values of `CC[C@H]1[C@@H](O)[C@@H]2[C@H](CC[C@]3(C)[C@@H]([C@H](C)CCOC(=O)NCC(C)C)CC[C@@H]23)[C@@]2(C)CC[C@@H](O)C[C@@H]12` [Example 137] are 0.1 to 1 µM and 270%.
In the same order, the values of `CC[C@H]1[C@@H](O)[C@@H]2[C@H](CC[C@]3(C)[C@@H]([C@H](C)CCCOC(=O)N4CCCC4)CC[C@@H]23)[C@@]2(C)CC[C@@H](O)C[C@@H]12` [Example 131] are 0.1 to 1 µM and 202%.
Turning to `CC[C@H]1[C@@H](O)[C@@H]2[C@H](CC[C@]3(C)[C@@H]([C@H](C)CCOC(=O)N[C@@H]4CCC[C@H]4O)CC[C@@H]23)[C@@]2(C)CC[C@@H](O)C[C@@H]12` [Example 207], the EC50 was in the range of 0.1 to 1 µM and the Emax is 188%.
Consider `CC[C@H]1[C@@H](O)[C@@H]2[C@H](CC[C@]3(C)[C@@H]([C@H](C)CCCOC(=O)NS(=O)(=O)c4ccc(-c5ccccc5)cc4)CC[C@@H]23)[C@@]2(C)CC[C@@H](O)C[C@@H]12` [Example 116], for which the EC50 lay within 1 to 10 µM and the Emax worked out at 294%.
In the same order, the values of `CC[C@H]1[C@@H](O)[C@@H]2[C@H](CC[C@]3(C)[C@@H]([C@H](C)CCOC(=O)NS(=O)(=O)c4ccc(OC(C)C)cc4)CC[C@@H]23)[C@@]2(C)CC[C@@H](O)C[C@@H]12` [Example 100] are less than 0.1 µM and 316%.
Taken in the same sequence, the figures for `CC[C@H]1[C@@H](O)[C@@H]2[C@H](CC[C@]3(C)[C@@H]([C@H](C)CCOC(=O)N4CC[C@H](O)C4)CC[C@@H]23)[C@@]2(C)CC[C@@H](O)C[C@@H]12` [Example 181] were less than 0.1 µM and 382%.
In the same order, the values of `CC[C@H]1[C@@H](O)[C@@H]2[C@H](CC[C@]3(C)[C@@H]([C@H](C)CCOC(=O)NS(=O)(=O)C(F)(F)F)CC[C@@H]23)[C@@]2(C)CC[C@@H](O)C[C@@H]12` [Example 108] are 1 to 10 µM and 309%.
